Results published in ChEMBL document CHEMBL3400033, “Molecular docking and antiviral activity of N-substituted benzyl/phenyl-2-(3,4-dimethyl-5,5-dioxidopyrazolo[4,3-c][1,2]benzothiazin-2(4H)-yl)acetamides” (Bioorg Med Chem Lett, 2015).

Key:
[1] = tested on: Human immunodeficiency virus 1; assay: Antiviral activity against HIV1; assay type: functional, organism-based
CCRF-CEM = assay: Cytotoxicity against human CEM cells assessed as reduction in cell viability after 5 days by Cell Titer 96 Aqueous One Solution cell proliferation assay; assay type: cell-based; details: 120 h
[2] = tested on: Human immunodeficiency virus 1; assay: Antiviral activity against HIV1 LAV-1 infected in human PBMC cells after 6 days by RT assay; assay type: functional, organism-based; details: Human immunodeficiency virus 1, LAV-1, PBMC, 144 h
PBMC = assay: Cytotoxicity against human PBMC cells assessed as reduction in cell viability after 5 days by Cell Titer 96 Aqueous One Solution cell proliferation assay; assay type: cell-based; details: 120 h
Vero = assay: Cytotoxicity against african green monkey Vero cells assessed as reduction in cell viability after 5 days by Cell Titer 96 Aqueous One Solution cell proliferation assay; assay type: cell-based; details: Chlorocebus sabaeus, 120 h

C/C(=N\NC(=O)CN1c2c(-c3ccccc3)n[nH]c2-c2ccccc2S1(=O)=O)c1cc(Cl)sc1Cl
EC50 [1]: 3.2 µM

Cc1c2c(nn1CC(=O)Nc1ccccc1Br)-c1ccccc1S(=O)(=O)N2C
IC50 (CCRF-CEM): 6 µM
EC50 [2]: 6.5 µM
EC90 [2]: 15.7 µM
IC50 (PBMC): 2.4 µM
IC50 (Vero): 8.2 µM

Cc1c2c(nn1CC(=O)Nc1cccc(Br)c1)-c1ccccc1S(=O)(=O)N2C
IC50 (CCRF-CEM): 5.2 µM
EC50 [2]: 6.3 µM
EC90 [2]: 15.3 µM
IC50 (PBMC): 8.1 µM
IC50 (Vero): 7.2 µM

Cc1c2c(nn1CC(=O)Nc1ccccc1F)-c1ccccc1S(=O)(=O)N2C
IC50 (CCRF-CEM): 9.5 µM
EC50 [2]: 7.6 µM
EC90 [2]: 35.4 µM
IC50 (PBMC): 18 µM
IC50 (Vero): 28.2 µM

Cc1c2c(nn1CC(=O)NCc1ccccc1Br)-c1ccccc1S(=O)(=O)N2C
IC50 (CCRF-CEM): 38.1 µM
EC50 [2]: 16.7 µM
EC90 [2]: 87.5 µM
IC50 (PBMC): 63.1 µM
IC50 (Vero): 36.5 µM

Cc1c2c(nn1CC(=O)NCc1ccccc1Cl)-c1ccccc1S(=O)(=O)N2C
IC50 (CCRF-CEM): 68.4 µM
EC50 [2]: 15.9 µM
EC90 [2]: 28.5 µM
IC50 (PBMC): 74.2 µM
IC50 (Vero): 38.7 µM

COc1cccc(NC(=O)Cn2nc3c(c2C)N(C)S(=O)(=O)c2ccccc2-3)c1
IC50 (CCRF-CEM): 9.3 µM
EC50 [2]: 7.2 µM
EC90 [2]: 17.3 µM
IC50 (PBMC): 10.5 µM
IC50 (Vero): ≥ 100 µM

COc1cccc(CNC(=O)Cn2nc3c(c2C)N(C)S(=O)(=O)c2ccccc2-3)c1
IC50 (CCRF-CEM): 28.8 µM
EC50 [2]: 21.1 µM
EC90 [2]: 92 µM
IC50 (PBMC): 18.7 µM
IC50 (Vero): 31.1 µM

Cc1c2c(nn1CC(=O)NCc1ccccc1F)-c1ccccc1S(=O)(=O)N2C
IC50 (CCRF-CEM): 82 µM
EC50 [2]: 57.5 µM
EC90 [2]: ≥ 100 µM
IC50 (PBMC): 87.5 µM
IC50 (Vero): 96.1 µM

Cc1c2c(nn1CC(=O)Nc1ccccc1)-c1ccccc1S(=O)(=O)N2C
IC50 (CCRF-CEM): < 1 µM
EC50 [2]: 6.8 µM
EC90 [2]: 16.3 µM
IC50 (PBMC): 7.7 µM
IC50 (Vero): 6.8 µM

COc1ccc(CNC(=O)Cn2nc3c(c2C)N(C)S(=O)(=O)c2ccccc2-3)cc1
IC50 (CCRF-CEM): > 100 µM
EC50 [2]: 18.6 µM
EC90 [2]: ≥ 100 µM
IC50 (PBMC): > 100 µM
IC50 (Vero): 73 µM

COc1ccc(NC(=O)Cn2nc3c(c2C)N(C)S(=O)(=O)c2ccccc2-3)c(OC)c1
IC50 (CCRF-CEM): > 100 µM
EC50 [2]: > 100 µM
EC90 [2]: > 100 µM
IC50 (PBMC): > 100 µM
IC50 (Vero): > 100 µM

Cc1ccccc1CNC(=O)Cn1nc2c(c1C)N(C)S(=O)(=O)c1ccccc1-2
IC50 (CCRF-CEM): > 100 µM
EC50 [2]: ≥ 100 µM
EC90 [2]: > 100 µM
IC50 (PBMC): > 100 µM
IC50 (Vero): > 100 µM

Cc1ccc(CNC(=O)Cn2nc3c(c2C)N(C)S(=O)(=O)c2ccccc2-3)cc1
IC50 (CCRF-CEM): > 100 µM
EC50 [2]: 9.9 µM
EC90 [2]: 77.7 µM
IC50 (PBMC): 52.2 µM
IC50 (Vero): 63.1 µM

Cc1c2c(nn1CC(=O)NCc1ccc(F)cc1)-c1ccccc1S(=O)(=O)N2C
IC50 (CCRF-CEM): 41.9 µM
EC50 [2]: 22.4 µM
EC90 [2]: ≥ 100 µM
IC50 (PBMC): > 100 µM
IC50 (Vero): > 100 µM

COc1ccccc1CNC(=O)Cn1nc2c(c1C)N(C)S(=O)(=O)c1ccccc1-2
IC50 (CCRF-CEM): > 100 µM
EC50 [2]: 17.2 µM
EC90 [2]: 60.3 µM
IC50 (PBMC): ≥ 100 µM
IC50 (Vero): > 100 µM
